# Reference: patent US9340819B2, “Method for detecting the presence of carbapenemase-producing bacteria in a sample” (priority 2011, dated 2016)
# How the values were obtained:
# [1] = test system: S. marcescens; assay: MIC of carbapenem by Etest (Example 2); type: cell-based, Serratia marcescens
# Method: (§1) All strains had previously been characterized for their β-lactamase content at the molecular level. Minimum inhibitory concentration of carbapenem were determined using the Etest® (AB bioMérieux, Solna, Sweden) and results were recorded according to US guidelines (CLSI), as updated in 2011.
# [2] = test system: P. rettgeri; assay: MIC of carbapenem by Etest (Example 2); type: cell-based, Proteus rettgeri
# Method: as §1
# [3] = test system: E. coli; assay: MIC by Etest on Mueller-Hinton agar (Example 1); type: cell-based, Escherichia coli; conditions: for MIC: Escherichia coli
# Method: (§2) Prior to performing the method of the invention, susceptibility testings were performed by determining Minimum Inhibitory Concentration (MIC) values by the Etest® (AB bioMérieux; Solna, Sweden) on Mueller-Hinton agar plates at 37° C. and results of susceptibility testing were recorded according to the Clinical and Laboratory Standards Institute (CLSI) guidelines as modified in June 2010 (18). The breakpoints for imipenem are S≦1 μg/ml (susceptibility) and R≧4 μg/ml (resistant). As for those for ertapenem, they are S≦0.25 μg/ml and R≧1 μg/ml (see Tables 1 and 2).
# [4] = test system: E. aerogenes; assay: MIC of carbapenem by Etest (Example 2); type: cell-based, Enterobacter aerogenes
# Method: as §1
# [5] = test system: E. sakazaki; assay: MIC of carbapenem by Etest (Example 2); type: cell-based; conditions: ESBL + decreased membrane permeability; E. sakazaki CTX-M-15, n=1
# Method: as §1
# [6] = test system: K. ozonae; assay: MIC of carbapenem by Etest (Example 2); type: cell-based; conditions: K. ozonae KPC-3, n=1
# Method: as §1
# [7] = test system: Salmonella spp.; assay: MIC of carbapenem by Etest (Example 2); type: cell-based; conditions: Salmonella spp. KPC-2, n=1
# Method: as §1
# [8] = test system: M. morganii; assay: MIC of carbapenem by Etest (Example 2); type: cell-based, Morganella morganii; conditions: Plasmid mediated AmpC or chromosomal AmpC + decreased membrane permeability; M. morganii Overexpressed cephalosporinase, n=2
# Method: as §1
# [9] = test system: K. pneumoniae; assay: MIC of carbapenem by Etest (Example 2); type: cell-based, Klebsiella pneumoniae
# Method: as §1
# [10] = test system: P. mirabilis; assay: MIC of carbapenem by Etest (Example 2); type: cell-based, Proteus mirabilis; conditions: Plasmid mediated AmpC or chromosomal AmpC + decreased membrane permeability; P. mirabilis ACC-1, n=1
# Method: as §1
# [11] = test system: K. pneumoniae; assay: MIC by Etest on Mueller-Hinton agar (Example 1); type: cell-based; conditions: Klebsiella pneumoniae
# Method: as §2
# [12] = test system: E. cloacae; assay: MIC by Etest on Mueller-Hinton agar (Example 1); type: cell-based; conditions: Enterobacter cloacae
# Method: as §2
# [13] = test system: P. stuartii; assay: MIC by Etest on Mueller-Hinton agar (Example 1); type: cell-based; conditions: Providencia stuartii, NDM-1 + OXA-1 + CMY-6
# Method: as §2
# [14] = test system: P. mirabilis; assay: MIC by Etest on Mueller-Hinton agar (Example 1); type: cell-based; conditions: Proteus mirabilis, plasmid mediated cephalosporinase ACC-1
# Method: as §2
# [15] = test system: C. freundii; assay: MIC by Etest on Mueller-Hinton agar (Example 1); type: cell-based; conditions: Citrobacter freundii; C. freundii STE (13); NDM-1 + OXA-1 + OXA-9 + OXA-10 + CTX-M-15 + TEM-1
# Method: as §2
# [16] = test system: E. cloacae; assay: MIC of carbapenem by Etest (Example 2); type: cell-based, Enterobacter cloacae
# Method: as §1
# [17] = test system: P. stuartii; assay: MIC of carbapenem by Etest (Example 2); type: cell-based, Providencia stuartii; conditions: P. stuartii NDM-1, n=1
# Method: as §1
structure (smiles),measurement,setting,value
"C[C@@H](O)[C@H]1C(=O)N2C(C(=O)O)=C(SCCN=CN)C[C@H]12 [IMP, imipenem]",MICs range,"[1]; S. marcescens IMP-11, n=1",8 mg/L
same,MICs range,"[1]; S. marcescens KPC-2, n=2",>32 mg/L
same,MICs range,"[1]; S. marcescens SME-1, n=1",32 mg/L
same,MICs range,"[1]; S. marcescens SME-2, n=1",32 mg/L
same,MICs range,"[1]; S. marcescens VIM-2, n=1",>32 mg/L
same,MICs range,"[2]; P. rettgeri NDM-1, n=1",3 mg/L
same,MICs range,"[2]; P. rettgeri OXA-181, n=1",8 mg/L
same,MICs,"[3]; E. coli Ec13 SYD (23), plasmid mediated cephalosporinase CMY-2",0.06 µg/mL
same,MICs,"[3]; E. coli J53 (29), wild-type",0.06 µg/mL
same,MICs,"[3]; E. coli VMC (24), plasmid mediated cephalosporinase CMY-10",0.06 µg/mL
same,MIC,"[3]; E. coli 271 AUS (12), NDM-1 + CTX-M-15 + TEM-1",6 µg/mL
same,MIC,"[3]; E. coli 5649 GEN, NDM-1 + OXA-1 + CMY-30 + TEM-1",6 µg/mL
same,MIC,"[3]; E. coli (18), ESBL CTX-M-14",0.06 µg/mL
same,MIC,"[3]; E. coli (20), ESBL VEB-1",0.06 µg/mL
same,MIC,"[3]; E. coli ALL, NDM-1 + OXA-1 + OXA-2 + CTX-M-15 + TEM-1",4 µg/mL
same,MIC,"[3]; E. coli BOU, OXA-48 + CTX-M-15",1 µg/mL
same,MIC,"[3]; E. coli COL (2), KPC-2",4 µg/mL
same,MIC,"[3]; E. coli DIH, VIM-19",1 µg/mL
same,MIC,"[3]; E. coli DIN, KPC",16 µg/mL
same,MIC,"[3]; E. coli FOR, ESBL CTX-M-15",0.06 µg/mL
same,MIC,"[3]; E. coli HAN (7), OXA-48",0.5 µg/mL
same,MIC,"[3]; E. coli MAD (14), VIM-1 + CTX-M-3",1.5 µg/mL
same,MIC,"[3]; E. coli MAD, IMP-1",0.5 µg/mL
same,MIC,"[3]; E. coli PSP, KPC-2",1 µg/mL
same,MIC,"[3]; E. coli RIC, NDM-1 + OXA-1 + OXA-10 + CMY-16",4 µg/mL
same,MICs range,"[4]; E. aerogenes KPC-2, n=1",8 mg/L
same,MICs range,"[4]; Plasmid mediated AmpC or chromosomal AmpC + decreased membrane permeability, E. aerogenes Overexpressed cephalosporinase, n=1",1 mg/L
same,MICs range,[5],0.25 mg/L
same,MICs range,[6],>32 mg/L
same,MICs range,[7],4 mg/L
same,MICs range,[8],1.5 to 2^ mg/L
same,MICs range,"[9]; ESBL + decreased membrane permeability, K. pneumoniae CTX-M-15, n=8",0.25 to 8 mg/L
same,MICs range,"[9]; ESBL + decreased membrane permeability, K. pneumoniae SHV-2a, n=1",0.25 mg/L
same,MICs range,"[9]; ESBL + decreased membrane permeability, K. pneumoniae SHV-28, n=1",1 mg/L
same,MICs range,"[9]; ESBLs, K. pneumoniae CTX-M-3, n=1",0.12 mg/L
same,MICs range,"[9]; ESBLs, K. pneumoniae CTX-M-14, n=1",0.12 mg/L
same,MICs range,"[9]; ESBLs, K. pneumoniae CTX-M-15, n=3",0.12 mg/L
same,MICs range,"[9]; K. pneumoniae IMP-1, n=5",0.5 to 8 mg/L
same,MICs range,"[9]; K. pneumoniae IMP-8, n=2",0.5 to 1 mg/L
same,MICs range,"[9]; K. pneumoniae KPC-3, n=3",0.5 to 8 mg/L
same,MICs range,"[9]; K. pneumoniae NDM-4, n=1",>32 mg/L
same,MICs range,"[9]; K. pneumoniae OXA-181, n=2",0.5 to 1 mg/L
same,MICs range,"[9]; K. pneumoniae VIM-19, n=1",8 mg/L
same,MICs range,"[9]; Plasmid mediated AmpC or chromosomal AmpC + decreased membrane permeability, K. pneumoniae DHA-1, n=1",>32 mg/L
same,MICs range,"[9]; Plasmid mediated AmpC or chromosomal AmpC + decreased membrane permeability, K. pneumoniae DHA-2, n=1",0.12 mg/L
same,MICs range,[10],0.25 mg/L
same,MIC,"[11]; CIP53153, K. pneumoniae CIP53153 (30), wild-type",0.19 µg/mL
same,MIC,"[11]; K. pneumoniae 1 OMA (11), NDM-1 + CTX-M-15 + OXA-1 + OXA-9",> 32 µg/mL
same,MIC,"[11]; K. pneumoniae 2 OMA, NDM-1 + OXA-1",> 32 µg/mL
same,MIC,"[11]; K. pneumoniae 7 AFR, NDM-1 + OXA-1 + CTX-M-15 + CMY-6 + TEM-1",> 32 µg/mL
same,MIC,"[11]; K. pneumoniae 6299 (19), ESBL OXA-163",0.19 µg/mL
same,MIC,"[11]; K. pneumoniae 6759 GEN, NDM-1 + CTX-M-15 + OXA-1 + OXA-9 + OXA-10 + CMY16",6 µg/mL
same,MIC,"[11]; K. pneumoniae (16), ESBL CTX-M-15",0.19 µg/mL
same,MIC,"[11]; K. pneumoniae BEL, OXA-48",1 µg/mL
same,MIC,"[11]; K. pneumoniae BER (28), porin deficiency associated with ESBL, TEM",0.5 µg/mL
same,MIC,"[11]; K. pneumoniae BIC (4), OXA-48",0.5 µg/mL
same,MIC,"[11]; K. pneumoniae CHA (5), OXA-48 + TEM-1",0.5 µg/mL
same,MIC,"[11]; K. pneumoniae COO (27), porin deficiency associated with ESBL, CTX-M-15 + SHV-28",0.5 µg/mL
same,MIC,"[11]; K. pneumoniae DIN, NDM-1",8 µg/mL
same,MIC,"[11]; K. pneumoniae EGY, OXA-48 + CTX-M-15",2 µg/mL
same,MIC,"[11]; K. pneumoniae H1516-6 COL (3), KPC-2 + TEM-1 + CTXM-15",2 µg/mL
same,MIC,"[11]; K. pneumoniae HOL, OXA-181 + CTX-M-15",0.5 µg/mL
same,MIC,"[11]; K. pneumoniae IND, NDM-1 + OXA-1 + CTX-M-15",6 µg/mL
same,MIC,"[11]; K. pneumoniae MAD (15), IMP-13",0.5 µg/mL
same,MIC,"[11]; K. pneumoniae MAD, VIM-1 + CTX-M-3",> 32 µg/mL
same,MIC,"[11]; K. pneumoniae OMA (8), OXA-181 + CTXM-15 + OXA-1",0.5 µg/mL
same,MIC,"[11]; K. pneumoniae RAM, OXA-48",1 µg/mL
same,MIC,"[11]; K. pneumoniae SAB, NDM-1",2 µg/mL
same,MIC,"[11]; K. pneumoniae UK (10), NDM-1 + CTX-M-15 + CMY-4 + OXA-1",8 µg/mL
same,MIC,"[12]; E. cloacae 2185, ESBL OXA-163",0.19 µg/mL
same,MIC,"[12]; E. cloacae (1), KPC-2",4 µg/mL
same,MIC,"[12]; E. cloacae (17), ESBL CTX-M-15",0.19 µg/mL
same,MIC,"[12]; E. cloacae ARF (25), overexpression of chromosomal cephalosporinase AmpC",0.38 µg/mL
same,MIC,"[12]; E. cloacae BLA, overexpression of chromosomal cephalosporinase AmpC",0.38 µg/mL
same,MIC,"[12]; E. cloacae CON (26), overexpression of chromosomal cephalosporinase AmpC",0.5 µg/mL
same,MIC,"[12]; E. cloacae IR38, NDM-1 + CTX-M-15",> 32 µg/mL
same,MIC,"[12]; E. cloacae TUR (6), OXA-48 + SHV-5",0.5 µg/mL
same,MIC,"[12]; E. cloacae, ESBL VEB-1",0.19 µg/mL
same,MIC,[13],> 32 µg/mL
same,MIC,[14],0.19 µg/mL
same,MIC,[15],> 32 µg/mL
same,MICs range,"[16]; E. cloacae GES-5, n=1",>32 mg/L
same,MICs range,"[16]; E. cloacae IMP-8, n=2",0.75 to 1.5 mg/L
same,MICs range,"[16]; E. cloacae KPC-2, n=7",1 to 24 mg/L
same,MICs range,"[16]; E. cloacae NDM-1, n=1",2 mg/L
same,MICs range,"[16]; E. cloacae NMC-A, n=1",16 mg/L
same,MICs range,"[16]; E. cloacae OXA-48, n=3",0.5 to 1 mg/L
same,MICs range,"[16]; ESBLs, E. cloacae CTX-M-15, n=3",0.12 mg/L
same,MICs range,"[16]; ESBLs, E. cloacae VEB-1, n=1",0.12 mg/L
same,MICs range,"[16]; Plasmid mediated AmpC or chromosomal AmpC + decreased membrane permeability, E. cloacae Overexpressed cephalosporinase, n=7",0.12 to 16^ mg/L
same,MICs range,[17],12 mg/L
